Measured values: US10195179B2, “Spiro-lactam NMDA receptor modulators and uses thereof” (Aptinyx Inc., priority 2016, dated 2019)
Where two headings read alike, the source gives them in different places.

Key:
NR2B = NR2B (Homo sapiens, UniProt Q13224); assay: Potentiation of [3H]MK-801 binding, wild-type NMDAR2B; design: species or system rat; settings: for NMDAR2B BINDING PROFILE % 1 mM Glycine: relative to 1 mM glycine; for NMDAR2B BINDING PROFILE Conclusion / EC50: wild-type NMDAR2B; for EC50: 0 = no activity, read-out: NMDAR2B BINDING PROFILE −logEC50 (converted)
Protocol: (§1) Assays were conducted as described by Moskal et al., “GLYX-13: a monoclonal antibody-derived peptide that acts as an N-methyl-D-aspartate receptor modulator,” Neuropharmacology, 49, 1077-87, 2005. The potentiation of [^3H]MK-801 binding (5 nM; 22.5 Ci/mmol) to well washed rat cortical membranes (200 μg) was measured under non-equilibrium conditions (15 min @ 25° C.) in the presence of increasing concentrations of Compound AA or Compound BB.
(§2) FIG. 2A depicts the potentiation of [^3H]MK-801 binding for wild-type NMDAR2 subtypes in the presence of Compound AA. FIG. 2B depicts the potentiation of [^3H]MK-801 binding for wild-type NMDAR2 subtypes in the presence of Compound BB. The following table depicts the results (P means potency and A means activity): […]

NR2D = NR2D (Homo sapiens, UniProt O15399); assay: Potentiation of [3H]MK-801 binding, wild-type NMDAR2D; design: species or system rat; settings: for NMDAR2D BINDING PROFILE % 1 mM Glycine: relative to 1 mM glycine
Sequence of NR2D (O15399 28-1336, species assumed, other chains not shown): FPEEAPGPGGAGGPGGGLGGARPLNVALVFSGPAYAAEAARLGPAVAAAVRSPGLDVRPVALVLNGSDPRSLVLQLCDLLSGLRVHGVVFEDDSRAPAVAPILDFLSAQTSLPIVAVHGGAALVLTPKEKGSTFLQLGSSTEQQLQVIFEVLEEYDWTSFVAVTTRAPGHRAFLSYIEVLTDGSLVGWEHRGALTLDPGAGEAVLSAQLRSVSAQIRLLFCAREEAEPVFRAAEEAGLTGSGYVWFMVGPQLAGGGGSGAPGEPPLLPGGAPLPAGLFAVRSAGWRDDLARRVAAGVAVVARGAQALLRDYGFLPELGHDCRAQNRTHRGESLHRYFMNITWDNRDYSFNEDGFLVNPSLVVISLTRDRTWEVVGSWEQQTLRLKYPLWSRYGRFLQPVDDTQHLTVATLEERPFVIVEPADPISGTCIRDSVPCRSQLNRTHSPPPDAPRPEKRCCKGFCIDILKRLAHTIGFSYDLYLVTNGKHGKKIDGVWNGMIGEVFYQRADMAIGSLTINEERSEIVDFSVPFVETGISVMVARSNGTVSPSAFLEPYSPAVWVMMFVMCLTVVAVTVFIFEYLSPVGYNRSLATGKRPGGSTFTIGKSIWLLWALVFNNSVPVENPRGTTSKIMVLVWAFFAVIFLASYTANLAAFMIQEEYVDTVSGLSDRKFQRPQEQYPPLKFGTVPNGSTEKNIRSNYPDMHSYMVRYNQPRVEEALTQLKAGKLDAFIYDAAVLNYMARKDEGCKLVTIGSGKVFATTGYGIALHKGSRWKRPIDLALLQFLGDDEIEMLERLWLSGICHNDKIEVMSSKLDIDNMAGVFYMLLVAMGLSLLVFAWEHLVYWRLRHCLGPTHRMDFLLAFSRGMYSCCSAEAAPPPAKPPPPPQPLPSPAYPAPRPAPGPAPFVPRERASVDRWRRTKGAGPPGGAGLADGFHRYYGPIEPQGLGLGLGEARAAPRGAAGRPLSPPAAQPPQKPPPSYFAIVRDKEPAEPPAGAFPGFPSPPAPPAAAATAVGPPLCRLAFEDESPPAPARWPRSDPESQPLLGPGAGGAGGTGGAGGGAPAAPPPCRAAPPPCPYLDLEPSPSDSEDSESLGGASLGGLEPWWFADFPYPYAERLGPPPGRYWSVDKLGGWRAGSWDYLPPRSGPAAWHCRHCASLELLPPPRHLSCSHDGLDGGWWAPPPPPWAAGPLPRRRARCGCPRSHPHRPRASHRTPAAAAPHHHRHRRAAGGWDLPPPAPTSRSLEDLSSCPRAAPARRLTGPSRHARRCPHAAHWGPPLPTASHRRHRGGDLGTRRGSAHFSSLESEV
Protocol: as §1, §2

NR2A = NR2A (Homo sapiens, UniProt Q12879); assay: Potentiation of [3H]MK-801 binding, wild-type NMDAR2A; design: species or system rat; settings: for NMDAR2A BINDING PROFILE % 1 mM Glycine: relative to 1 mM glycine
Sequence of NR2A (Q12879 23-1464, species assumed, other chains not shown): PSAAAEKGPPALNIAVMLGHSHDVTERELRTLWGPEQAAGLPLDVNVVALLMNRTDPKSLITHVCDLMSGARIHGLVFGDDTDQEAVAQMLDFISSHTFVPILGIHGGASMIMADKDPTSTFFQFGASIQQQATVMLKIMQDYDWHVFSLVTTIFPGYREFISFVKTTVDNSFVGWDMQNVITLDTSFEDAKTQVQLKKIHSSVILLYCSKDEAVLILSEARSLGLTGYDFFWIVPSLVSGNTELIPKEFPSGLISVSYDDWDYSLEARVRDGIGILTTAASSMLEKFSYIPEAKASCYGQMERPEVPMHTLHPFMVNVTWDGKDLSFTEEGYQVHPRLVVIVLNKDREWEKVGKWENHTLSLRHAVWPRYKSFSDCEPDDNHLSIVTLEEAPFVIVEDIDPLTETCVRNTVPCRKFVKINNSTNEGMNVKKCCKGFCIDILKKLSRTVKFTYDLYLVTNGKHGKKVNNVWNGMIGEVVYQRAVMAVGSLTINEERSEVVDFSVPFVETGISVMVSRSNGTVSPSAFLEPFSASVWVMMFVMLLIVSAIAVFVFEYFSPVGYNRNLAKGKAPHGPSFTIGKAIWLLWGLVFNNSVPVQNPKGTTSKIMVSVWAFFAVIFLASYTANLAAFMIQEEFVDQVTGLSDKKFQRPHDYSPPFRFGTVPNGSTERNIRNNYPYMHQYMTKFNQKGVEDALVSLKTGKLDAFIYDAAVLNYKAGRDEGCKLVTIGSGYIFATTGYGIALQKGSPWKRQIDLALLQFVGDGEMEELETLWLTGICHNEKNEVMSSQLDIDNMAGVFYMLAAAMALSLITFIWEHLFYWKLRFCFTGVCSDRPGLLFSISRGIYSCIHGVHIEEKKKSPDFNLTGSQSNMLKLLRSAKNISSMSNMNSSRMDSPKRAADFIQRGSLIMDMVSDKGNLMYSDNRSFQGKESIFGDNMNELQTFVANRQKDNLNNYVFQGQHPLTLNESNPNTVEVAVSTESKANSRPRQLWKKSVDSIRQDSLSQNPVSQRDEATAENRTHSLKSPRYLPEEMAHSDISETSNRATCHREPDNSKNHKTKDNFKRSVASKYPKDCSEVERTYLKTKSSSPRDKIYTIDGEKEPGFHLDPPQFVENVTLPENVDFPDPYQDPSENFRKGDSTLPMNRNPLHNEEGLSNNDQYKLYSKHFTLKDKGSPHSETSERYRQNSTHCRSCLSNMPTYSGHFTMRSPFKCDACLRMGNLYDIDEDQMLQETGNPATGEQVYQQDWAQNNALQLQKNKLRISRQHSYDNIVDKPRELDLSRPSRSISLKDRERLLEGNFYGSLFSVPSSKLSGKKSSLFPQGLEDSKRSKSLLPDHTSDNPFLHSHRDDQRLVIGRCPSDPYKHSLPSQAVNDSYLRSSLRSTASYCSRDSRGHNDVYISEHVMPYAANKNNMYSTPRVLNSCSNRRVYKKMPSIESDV

NR2C = NR2C (Homo sapiens, UniProt Q14957); assay: Potentiation of [3H]MK-801 binding, wild-type NMDAR2C; design: species or system rat; settings: for NMDAR2C BINDING PROFILE % 1 mM Glycine: relative to 1 mM glycine
Sequence of NR2C (Q14957 20-1233, species assumed, other chains not shown): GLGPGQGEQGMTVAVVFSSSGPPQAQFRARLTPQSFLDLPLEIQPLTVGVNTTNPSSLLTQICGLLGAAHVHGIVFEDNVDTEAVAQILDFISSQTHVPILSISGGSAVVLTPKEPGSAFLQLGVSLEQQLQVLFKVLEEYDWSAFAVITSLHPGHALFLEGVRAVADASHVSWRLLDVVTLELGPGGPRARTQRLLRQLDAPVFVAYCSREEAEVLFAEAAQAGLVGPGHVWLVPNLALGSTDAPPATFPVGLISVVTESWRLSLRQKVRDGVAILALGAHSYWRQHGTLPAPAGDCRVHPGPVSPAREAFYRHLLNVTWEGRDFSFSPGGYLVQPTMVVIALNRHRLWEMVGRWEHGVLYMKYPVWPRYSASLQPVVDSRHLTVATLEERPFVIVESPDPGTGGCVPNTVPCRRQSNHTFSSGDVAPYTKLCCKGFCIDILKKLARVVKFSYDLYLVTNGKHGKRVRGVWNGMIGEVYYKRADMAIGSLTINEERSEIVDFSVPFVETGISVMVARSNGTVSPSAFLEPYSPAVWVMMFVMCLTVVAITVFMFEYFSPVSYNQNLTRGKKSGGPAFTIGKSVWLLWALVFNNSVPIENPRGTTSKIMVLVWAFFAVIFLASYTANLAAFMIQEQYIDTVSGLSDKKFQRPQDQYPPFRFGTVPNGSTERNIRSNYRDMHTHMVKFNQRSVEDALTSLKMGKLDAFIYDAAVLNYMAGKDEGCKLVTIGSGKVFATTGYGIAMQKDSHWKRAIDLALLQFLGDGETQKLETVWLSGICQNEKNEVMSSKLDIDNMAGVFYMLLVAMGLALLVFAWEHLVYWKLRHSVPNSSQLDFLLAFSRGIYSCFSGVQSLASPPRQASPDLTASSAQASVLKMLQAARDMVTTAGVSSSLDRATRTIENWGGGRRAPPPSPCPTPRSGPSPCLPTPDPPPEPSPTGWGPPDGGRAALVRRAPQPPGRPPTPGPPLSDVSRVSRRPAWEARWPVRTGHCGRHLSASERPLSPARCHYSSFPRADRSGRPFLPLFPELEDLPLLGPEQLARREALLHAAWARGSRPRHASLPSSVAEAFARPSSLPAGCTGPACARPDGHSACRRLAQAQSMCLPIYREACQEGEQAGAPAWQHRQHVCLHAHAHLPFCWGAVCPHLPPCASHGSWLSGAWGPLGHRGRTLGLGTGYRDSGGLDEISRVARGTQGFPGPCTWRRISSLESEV
Protocol: as §1, §2

Sprague Dawley rats = assay: Porsolt forced swim test; type: in vivo, rat; settings: 1 mg/kg PO
Protocol: A non-clinical in vivo pharmacology study (Porsolt assay) was performed to measure antidepressant-like effects. A negative control (0.5% sodium carboxymethyl cellulose in 0.9% sterile saline vehicle) and a positive control (Compound C) were used to compare against Compound BB. The study allowed for the construction of a dose-response curve of the effects of each compound on the Porsolt forced swim test as assessed by the rats' response (reduced floating time) during a 5-minute swimming test.
Male 2-3 month old Sprague Dawley rats were used (Harlan, Indianapolis, Ind.). Rats were housed in Lucite cages with aspen wood chip bedding, maintained on a 12:12 light:dark cycle (lights on at 5 AM), and given ad libitum access to Purina lab chow (USA) and tap water throughout the study.
The Porsolt forced swim test adapted for use in rats was performed as described by Burgdorf et al., (The long-lasting antidepressant effects of rapastinel (GLYX-13) are associated with a metaplasticity process in the medial prefrontal cortex and hippocampus. Neuroscience 308:202-211, 2015). Animals were placed in a 46 cm tall×20 cm in diameter clear glass tube filled to 30 cm with tap water (23±1° C.) for 15 min on the first day (habituation) and 5 min on the subsequent test day. Animals were tested 1 h post-dosing with the compound BB, positive control (Compound C, 10 μg/kg), or vehicle (0.5% sodium carboxymethyl cellulose (Na-CMC) in 0.9% sterile saline). Water was changed after every other animal. Animals were videotaped, and floating time as defined as the minimal amount of effort required to keep the animals head above water was scored offline by a blinded experimenter with high inter-rater reliability (Pearson's r >0.9).
The maximally efficacious dose was defined as the lowest dose that was statistically different from vehicle but statistically equivalent (per Fisher's PLSD) to the higher doses. […]
Compound AA was assessed in a second set of animals at a single dose at 1 h post-administration and in a third set of animals at 24 h post-administration (FIG. 9B). […]

[1] = Plasma protein binding assay, rat; type: in vitro ADME; settings: read-out: Plasma Protein binding (% Bound) Plasma rat (converted)
Protocol: Bound drug concentration in the brain was also investigated, and plasma protein binding assays were conducted. The following table (% bound) indicates results for Compound AA and Compound BB.

[2] = Microsomal stability, rat; type: in vitro ADME; settings: rat microsomes
Protocol: (§3) Microsomal stability for Compound AA and Compound BB was investigated. The following table indicates the percent of Compound AA and Compound BB remaining after 60 minutes.

Plasma stability, rat = type: in vitro ADME
Protocol: (§4) Plasma stability for Compound AA and Compound BB was investigated. The following table indicates the percent of Compound AA and Compound BB remaining after 60 minutes.

[3] = Microsomal stability, human; type: in vitro ADME; settings: human microsomes
Protocol: as §3

[4] = Bioavailability and CSF/brain/plasma exposure after PO administration; type: in vivo, Sprague Dawley rats; settings: rat, plasma; PO administration (10 mg/kg PO, 2 mg/kg IV), male Sprague Dawley rats; read-out: Bioavailablity (% F)
Protocol: The bioavailablity of Compound BB was investigated following PO administration. CSF, brain and plasma samples were analyzed following dosing with compound BB (10 mg/kg). The following table indicates the bioavailablity and CSF/plasma and brain/plasma ratios.
Sprague Dawley rats were dosed intravenously with 2 mg/kg of Compound AA. A second group of Sprague Dawley rats was dosed per os with 10 mg/kg of compound AA. Plasma samples were drawn over a 24 h period and analyzed for Compound AA. FIG. 3A presents the mean plasma concentration-time profile of Compound AA following the single intraveneous (2 mg/kg) and oral (10 mg/kg) dose administration in male Sprague Dawley rats over the 24 hour period.
In another experiment. Sprague Dawley rats were dosed intravenously with 2 mg/kg of Compound BB. A second group of Sprague Dawley rats was dosed per os with 10 mg/kg of compound BB. Plasma samples were drawn over a 24 h period and analyzed for Compound BB. FIG. 3B presents the mean plasma concentration-time profile of Compound BB following the single intraveneous (2 mg/kg) and oral (10 mg/kg) dose administration in male Sprague Dawley rats over the 24 hour period.
In another experiment, Sprague Dawley rats were dosed per os with 10 mg/kg of Compound BB. Plasma, brain, and CSF samples were analyzed at various time points over a 24 hour period.

Plasma stability, human = type: in vitro ADME
Protocol: as §4

[5] = wild-type NMDAR2D, read-out: NMDAR2D BINDING PROFILE −logEC50 (converted)
[6] = wild-type NMDAR2A, 0 = no activity, read-out: NMDAR2A BINDING PROFILE −logEC50 (converted)
[7] = wild-type NMDAR2C, 0 = no activity, read-out: NMDAR2C BINDING PROFILE −logEC50 (converted)
[8] = potentiation of [3H]MK-801 binding

Compound	NMDAR2B BINDING PROFILE % 1 mM Glycine (NR2B) [%]	NMDAR2B BINDING PROFILE Conclusion (NR2B)	EC50 (NR2B) [nM]	NMDAR2D BINDING PROFILE % 1 mM Glycine (NR2D) [%]	NMDAR2D BINDING PROFILE Conclusion (NR2D; wild-type NMDAR2D)	EC50 (NR2D; [5]) [M]	NMDAR2A BINDING PROFILE % 1 mM Glycine (NR2A) [%]	NMDAR2A BINDING PROFILE Conclusion (NR2A; wild-type NMDAR2A)	EC50 (NR2A; [6]) [M]	NMDAR2C BINDING PROFILE % 1 mM Glycine (NR2C) [%]	NMDAR2C BINDING PROFILE Conclusion (NR2C; wild-type NMDAR2C)	EC50 (NR2C; [7]) [M]	other results
C[C@@H](O)[C@@H](C(N)=O)N1C[C@]2(CCCN2C(=O)OC(C)(C)C)C1=O [Compound W, tert-butyl (R)-2-((2S,3R)-1-amino-3-hydroxy-1-oxobutan-2-yl)-1-oxo-2,5-diazaspiro[3,4]octane-5-carboxylate]	53.09	WT2B agonist	1.06	66.72	WT2D agonist	7.08e-12	18.33	WT2A agonist	4.47e-12	67.5	WT2C agonist	1.45e-10	
C[C@@H](O)[C@@H](C(N)=O)N1C[C@]2(CCCN2S(C)(=O)=O)C1=O [Compound AA, (2S,3R)-3-hydroxy-2-((R)-5-(methylsulfonyl)-1-oxo-2,5-diazaspiro[3,4]octan-2-yl)butanamide]	0	WT2B no		52	WT2D agonist	1.58e-11	38.8	WT2A agonist		67	WT2C agonist		floating time in the Porsolt test (Sprague Dawley rats; 1 h post-dosing): significant (p<0.05) antidepressant-like effect; floating time in the Porsolt test (Sprague Dawley rats; 24 h post-dosing): significant (p<0.05) antidepressant-like effect; fraction unbound [1]: 0.82; Microsomal Stability (% remaining at 60 min) Rat [2]: 100%; Plasma Stability (% remaining at 60 min) Rat (Plasma stability, rat): 59%; NR2B A (%) (activity) (NR2B; [8]): 0%; Microsomal Stability (% remaining at 60 min) Human [3]: 100%; bioavailability [4]: 29%; Plasma Stability (% remaining at 60 min) Human (Plasma stability, human): 91%; NR2D A (%) (activity) (NR2D; [8]): 58.7%; EC50 (NR2D; potentiation of [3H]MK-801 binding, 0 = no activity, read-out: NR2D P (M) (potency) (converted)): 2e-11 M; NR2A A (%) (activity) (NR2A; [8]): 38.8%; EC50 (NR2A; potentiation of [3H]MK-801 binding, 0 = no activity, read-out: NR2A P (M) (potency)): 1e-10 M; NMDAR2A BINDING PROFILE −logEC50 (NR2A; wild-type NMDAR2A, 0 = no activity): 10; NR2C A (%) (activity) (NR2C; [8]): 67.0%; EC50 (NR2C; potentiation of [3H]MK-801 binding, 0 = no activity, read-out: NR2C P (M) (potency)): 1e-10 M; NMDAR2C BINDING PROFILE −logEC50 (NR2C; wild-type NMDAR2C, 0 = no activity): 10

Further lines, with some results ahead:

NMDAR2B BINDING PROFILE % 1 mM Glycine (NR2B) [%]	NMDAR2B BINDING PROFILE Conclusion (NR2B)	EC50 (NR2B) [nM]	NMDAR2D BINDING PROFILE % 1 mM Glycine (NR2D) [%]	NMDAR2D BINDING PROFILE Conclusion (NR2D; wild-type NMDAR2D)	EC50 (NR2D; [5]) [M]	NMDAR2A BINDING PROFILE % 1 mM Glycine (NR2A) [%]	NMDAR2A BINDING PROFILE Conclusion (NR2A; wild-type NMDAR2A)	EC50 (NR2A; [6]) [M]	NMDAR2C BINDING PROFILE % 1 mM Glycine (NR2C) [%]	NMDAR2C BINDING PROFILE Conclusion (NR2C; wild-type NMDAR2C)	EC50 (NR2C; [7]) [M]	Compound	other results
70.74	WT2B agonist		54.85	WT2D agonist	1e-10	61.76	WT2A agonist	8.91e-12	64.24	WT2C agonist	3.63e-12	CC(C)C(=O)N1CCC[C@]12CN([C@H](C(N)=O)[C@@H](C)O)C2=O [Compound Y, (2S,3R)-3-hydroxy-2-((R)-5-isobutyryl-1-oxo-2,5-diazaspiro[3,4]octan-2-yl)butanamide]	
59.55	WT2B agonist	0.147	93.58	WT2D agonist	1.32e-12	41.04	WT2A agonist		59.73	WT2C agonist		C[C@@H](O)[C@@H](C(N)=O)N1C[C@@]2(CCCN2C(=O)OC(C)(C)C)C1=O [Compound X, tert-butyl (S)-2-((2S,3R)-1-amino-3-hydroxy-1-oxobutan-2-yl)-1-oxo-2,5-diazaspiro[3,4]octane-5-carboxylate]	
70.49	WT2B agonist		65.32	WT2D agonist	6.03e-12	42.5	WT2A agonist	8.71e-11	47.76	WT2C agonist	3.16e-12	CC(C)C(=O)N1CCC[C@@]12CN([C@H](C(N)=O)[C@@H](C)O)C2=O [Compound Z, (2S,3R)-3-hydroxy-2-((S)-5-isobutyryl-1-oxo-2,5-diazaspiro[3,4]octan-2-yl)butanamide]	
